What was measured:
[1] = biological target: T1, recombinant human Cox-1 (r-hu Cox1) (Homo sapiens, UniProt P23219); assay: Recombinant human PGHS-1 enzyme assay (RHUCX1); format: biochemical; conditions: read-out: RHUCX1 % Inh. at Dose
T1 construct: made in house; host or cells: baculovirus/Sf9 insect cells (microsomes)
Description: (§1) To compare the mean responses of the treatment groups, analysis of variance was applied. Percent inhibition values were determined by comparing the individual treatment mean values to the mean of the control group. Linear regression was used to estimate IC50's/ED50's in appropriate assays.
(§2) EIA reagents for prostaglandin determination were purchased from Perseptive Diagnostics, (Cambridge, Mass.). Prostaglandin E2 (PGE2) levels in lavage fluids were determined after the samples were dried under nitrogen and reconstituted with assay buffer. PGE2 levels in enzyme assays or cell culture media were measured against standards prepared in the same milieu. The immunoassays were conducted as recommended by the manufacturer. The EIA was conducted in 96 well microtiter plates (Nunc Roskilde, Denmark) and optical density was measured using a microplate reader (Vmax, Molecular Devices Corp., Menlo Park, Calif.).
(§3) Inhibition of prostaglandin biosynthesis in vitro was evaluated using recombinant human Cox-1 (r-hu Cox1) and Cox-2 (r-hu Cox-2) enzyme assays. […] The reaction was allowed to run for 2.5 minutes at room temperature prior to quenching with HCl and neutralization with NaOH. PGE2 production in the presence and absence of the drug was determined by EIA analysis. The EIA was conducted in 96 well microtiter plates (Nunc Roskilde, Denmark) and optical density was measured using a microplate reader (Vmax, Molecular Devices Corp., Menlo Park, Calif.). EIA reagents for prostaglandin determination were purchased from Perseptive Diagnostics (Cambridge, Mass.). PGE2 levels were measured against standards prepared in the same milieu. The immunoassays were conducted as recommended by the manufacturer.

[2] = biological target: T2, recombinant human Cox-2 (r-hu Cox-2) (Homo sapiens, UniProt P35354); assay: Recombinant human PGHS-2 enzyme assay (RHUCX2); format: biochemical; conditions: for IC50: read-out: RHUCX2 IC50 (parenthetical value); for inhibition at 0.01 µM / inhibition at 0.1 µM / inhibition at 1 µM / inhibition at 10 µM: read-out: RHUCX2 % Inh. at Dose
T2 construct: made in house; host or cells: baculovirus/Sf9 insect cells (microsomes)
T2 sequence (P35354 18-604): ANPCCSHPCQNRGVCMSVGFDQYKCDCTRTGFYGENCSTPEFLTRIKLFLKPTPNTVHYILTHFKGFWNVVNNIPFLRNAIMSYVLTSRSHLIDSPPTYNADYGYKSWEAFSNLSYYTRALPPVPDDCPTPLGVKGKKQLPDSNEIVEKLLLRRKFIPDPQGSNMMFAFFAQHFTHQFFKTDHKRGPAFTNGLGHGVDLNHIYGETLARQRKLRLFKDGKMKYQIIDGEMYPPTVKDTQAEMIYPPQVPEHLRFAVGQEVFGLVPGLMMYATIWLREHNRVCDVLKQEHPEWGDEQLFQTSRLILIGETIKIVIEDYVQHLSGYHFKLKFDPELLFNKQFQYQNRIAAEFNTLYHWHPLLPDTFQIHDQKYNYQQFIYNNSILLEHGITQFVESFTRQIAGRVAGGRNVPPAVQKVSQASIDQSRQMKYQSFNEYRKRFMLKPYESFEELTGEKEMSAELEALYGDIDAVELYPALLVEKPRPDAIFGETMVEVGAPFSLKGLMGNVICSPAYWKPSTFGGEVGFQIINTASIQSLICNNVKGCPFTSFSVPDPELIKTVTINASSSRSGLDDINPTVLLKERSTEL
Description: as §1, §2, §3

T1 sequence (P23219 24-599): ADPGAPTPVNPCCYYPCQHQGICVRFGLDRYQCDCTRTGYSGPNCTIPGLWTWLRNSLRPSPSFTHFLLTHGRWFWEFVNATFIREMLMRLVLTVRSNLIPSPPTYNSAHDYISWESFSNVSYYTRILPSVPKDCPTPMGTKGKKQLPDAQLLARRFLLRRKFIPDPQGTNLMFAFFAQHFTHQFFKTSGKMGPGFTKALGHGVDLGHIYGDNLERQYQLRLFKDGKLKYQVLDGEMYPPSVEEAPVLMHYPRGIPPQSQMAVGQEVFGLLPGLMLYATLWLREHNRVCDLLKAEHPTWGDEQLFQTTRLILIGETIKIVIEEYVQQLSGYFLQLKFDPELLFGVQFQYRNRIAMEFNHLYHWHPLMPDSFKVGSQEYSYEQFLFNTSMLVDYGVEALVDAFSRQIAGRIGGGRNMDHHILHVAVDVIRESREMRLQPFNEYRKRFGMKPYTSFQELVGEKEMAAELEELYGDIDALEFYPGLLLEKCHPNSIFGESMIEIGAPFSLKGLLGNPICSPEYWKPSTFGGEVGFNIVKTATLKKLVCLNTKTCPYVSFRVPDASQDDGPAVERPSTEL

Row | SMILES | inhibition at 10 µM [1] [%] | IC50 [2] [nM] | melting point [°C] | inhibition at 100 µM [1] [%] | inhibition at 1 µM ([1]; 1 μM) [%] | inhibition at 0.01 µM [2] [%] | inhibition at 0.1 µM [2] [%] | inhibition at 1 µM [2] [%] | inhibition at 10 µM [2] [%]
1 | CS(=O)(=O)c1ccc(-c2cnn(CC=Cc3ccccc3)c(=O)c2-c2ccc(F)cc2)cc1 [Example 36, 2-(3-Phenyl-2-propenyl)-4-(4-fluorophenyl)-5-[4-(methylsulfonyl)phenyl]-3(2H)-pyridazinone] | 21 | 570 | 165 to 167 |  |  |  |  |  | 
2 | CC1(n2ncc(-c3ccc(S(C)(=O)=O)cc3)c(-c3ccc(F)cc3)c2=O)CCCC1 [Example 134] | 35 | 53 | 107 to 110 | 54 |  |  |  |  | 
3 | CS(=O)(=O)c1ccc(-c2cnn(C3CCC3)c(=O)c2-c2ccc(F)cc2)cc1 [Example 122, 2-Cyclobutyl-4-(4-fluorophenyl)-5-[4-(methylsulfonyl)phenyl]-3(2H)-pyridazinone] |  | 285 | 202 to 203 | 1 |  |  |  |  | 
4 | CS(=O)(=O)c1ccc(-c2cnn(Cc3ncc(Cl)s3)c(=O)c2-c2ccc(F)cc2)cc1 [Example 39, 2-(5-Chlorothiazol-2-ylmethyl)-4-(4-fluorophenyl)-5-[4-(methylsulfonyl)phenyl]-3(2H)-pyridazinone] |  | 440 | 185 to 186 | 0 |  |  |  |  | 
5 | Cc1cc(-c2c(-c3ccc(S(C)(=O)=O)cc3)cnn(-c3ccc(F)c(F)c3)c2=O)ccc1F [Example 235, 2-(3,4-Difluorophenyl)-4-(4-fluoro-3-methylphenyl)-5-[4-(methylsulfonyl)phenyl]-3(2H)-pyridazinone] |  | 210 | 166 to 168 | 22 |  |  |  |  | 
6 | CS(=O)(=O)c1ccc(-c2cnn(CC=C(Cl)Cl)c(=O)c2-c2ccc(F)cc2)cc1 [Example 35] | 34 | 17 | 150 to 152 |  |  |  |  |  | 
7 | CSc1cccc(-n2ncc(-c3ccc(S(C)(=O)=O)cc3)c(-c3ccc(F)cc3)c2=O)c1 [Example 97, 2-[3-(Methylthio)phenyl]-4-(4-fluorophenyl)-5-[4-(methylsulfonyl)phenyl]-3(2H)-pyridazinone] |  | 332 | 196 | 35 |  |  |  |  | 
8 | CS(=O)(=O)c1ccc(-c2cnn(-c3ccc(F)c(F)c3)c(=O)c2C2CCCCC2)cc1 [Example 232, 2-(3,4-Difluorophenyl)-4-cyclohexyl-5-[4-(methylsulfonyl)phenyl]-3(2H)-pyrdazinone] |  | 24 | 80 to 83 | 23 |  |  |  |  | 
9 | CS(=O)(=O)c1ccc(-c2cnn(CC(F)(F)F)c(=O)c2-c2ccc(Cl)c(Cl)c2)cc1 [Example 81, 2-(2,2,2-Trifluoroethyl)-4-(3,4-dichlorophenyl)-5-[4-(methylsulfonyl)phenyl]-3(2H)-pyridazinone] |  |  | 197 to 198 | 6 |  |  | 44 | 97 | 
10 | CS(=O)(=O)c1ccc(-c2cnn(-c3cc(Cl)cc(Cl)c3)c(=O)c2-c2ccc(F)cc2)cc1 [Example 188, 2-(3,5-Dichlorophenyl)-4-(4-fluorophenyl)-5-[4-(methylsulfonyl)phenyl]-3-(2H)-pyridazinone] |  | 526 | 289 to 294 | 18 |  |  |  |  | 
11 | CC(c1ccc(F)cc1)n1ncc(-c2ccc(S(C)(=O)=O)cc2)c(-c2ccc(F)cc2)c1=O (stereo not drawn) [Example 50, 2-(α-Methyl-4-fluorobenzyl)-4-(4-fluorophenyl)-5-[4-(methylsulfonyl)phenyl]-3(2H)-pyridazinone] |  |  | 162 to 164 | 23 |  |  | 59 | 99 | 

More lines, now with the values ahead:

Row | inhibition at 10 µM [1] [%] | IC50 [2] [nM] | melting point [°C] | inhibition at 100 µM [1] [%] | inhibition at 1 µM ([1]; 1 μM) [%] | inhibition at 0.01 µM [2] [%] | inhibition at 0.1 µM [2] [%] | inhibition at 1 µM [2] [%] | inhibition at 10 µM [2] [%] | SMILES
12 |  |  | 198 to 200 | 58 | 47 | 58 | 63 | 83 |  | Cc1ccc(-c2c(-c3ccc(S(N)(=O)=O)cc3)cnn(-c3ccc(F)c(F)c3)c2=O)cc1F [Example 386, 2-(3,4-Difluorophenyl)-4-(3-fluoro-4-methylphenyl)-5-[4-(aminosulfonyl)phenyl]-3(2H)-pyridazinone]
13 |  | 124 | 98 to 99 | 16 |  |  |  |  |  | CC(C)CCCOc1c(-c2ccc(S(C)(=O)=O)cc2)cnn(-c2ccc(F)c(F)c2)c1=O [Example 437, 2-(3,4-Difluorophenyl)-4-(4-methyl-1-pentyloxy)-5-[4-(methylsulfonyl)phenyl]-3(21)-pyridazinone]
14 |  |  | 101 to 103 | 6 |  | 43 | 68 | 98 |  | CS(=O)(=O)c1ccc(-c2cnn(-c3ccc(F)c(Cl)c3)c(=O)c2Cc2cccc(F)c2)cc1 [Example 249, 2-(3-Chloro-4-fluorophenyl)-4-(3-fluorobenzyl)-5-[4-(methylsulfonyl)phenyl]-3(2H)-pyridazinone]
15 |  |  | 142 to 145 | 0 |  |  | 59 | 88 | 94 | CS(=O)(=O)c1ccc(-c2cnn(-c3cccc(Cl)c3)c(=O)c2CCc2ccccc2)cc1 [Example 372, 2-(3-Chlorophenyl)-4-(phenethyl)-5-[4-(methylsulfonyl)phenyl]-3(2H)-pyridazinone]
16 |  |  | 191 to 193 | 8 |  |  | 33 | 48 | 53 | CS(=O)(=O)c1ccc(-c2cnn(CC(F)(F)F)c(=O)c2Oc2cccnc2)cc1 [Example 265, 2-(2,2,2-Trifluoroethyl)-4-(3-pyridyloxy)-5-[4-(methylsulfonyl)phenyl]-3(2H)-pyridazinone]
17 |  |  | 80 to 100 | 0 |  |  | 46 | 66 | 79 | CS(=O)(=O)c1ccc(-c2cnn(-c3ccc(F)cc3)c(=O)c2N2CCCCC2)cc1 [Example 355, 2-(4-Fluorophenyl)-4-(1-piperidinyl)-5-[4-(methylsulfonyl)phenyl]-3(2H)-pyridazinone]
18 | 29 | 272 | 199 to 202 | 77 |  |  |  |  |  | NS(=O)(=O)c1ccc(-c2cnn(-c3ccc(F)cc3)c(=O)c2Cc2cccc(F)c2)cc1 [Example 253, 2-(4-Fluorophenyl)-4-(3-fluorobenzyl)-5-[4-(aminosulfonyl)phenyl]-3(2H)-pyridazinone]
19 |  |  | 95 to 99 | 35 |  | 74 | 86 |  |  | CON=C(Cn1ncc(-c2ccc(S(C)(=O)=O)cc2)c(-c2ccc(F)cc2)c1=O)c1ccccc1 [Example 443, 2-(2-Methoxyimino-2-phenylethyl)-4-(4-fluorophenyl)-5-[4-(methylsulfonyl)phenyl]-3(2H)-pyridazinone]
20 |  | 323 | 112 to 115 | 29 |  |  |  |  |  | CC(C)CCCc1c(-c2ccc(S(C)(=O)=O)cc2)cnn(-c2ccc(F)cc2)c1=O [Example 420, 2-(4-Fluorophenyl)-4-(4-methylpentyl)-5-[4-(methylsulfonyl)phenyl]-3(2H)-pyridazinone]
21 |  | 20 | 110 to 113 | 2 |  |  |  |  |  | CS(=O)(=O)c1ccc(-c2cnn(-c3cccc(Cl)c3)c(=O)c2OCc2ccccc2)cc1 [Example 374, 2-(3-Chlorophenyl)-4-(benzyloxy)-5-[4-(methylsulfonyl)phenyl]-3(2H)-pyridazinone]
22 |  |  | 109 to 111 | 12 |  | 31 | 69 |  |  | C=C(C)CCOc1c(-c2ccc(S(C)(=O)=O)cc2)cnn(-c2ccc(F)cc2)c1=O [Example 425, 2-(4-Fluorophenyl)-4-(3-methyl-3-butenoxy)-5-[4-(methylsulfonyl)phenyl]-3(2H)-pyridazinone]
